The subject of one experiment is human vulvar fibroblasts. Nature of the experiment: In vitro LPV model: SPM post-treatment of already activated patient fibroblasts, IL-6 and PGE2. The class given is cell-based. The note with it: post-treatment: IL-1β 30 min, then 5 nM SPM 18 hours, booster dose 6 hr. The method, then:
FIGS. 5A, 5B, 5C, and 5D are a set of diagrams showing that PGE2 and IL-6 production is reduced by SPMs. Patient vestibular or vulvar fibroblasts were pre-treated for 10 hours with Lipoxin A4 (LxA4), Resolvin D2 (RvD2), (7R)-Maresin 1 or epi(7S)-Maresin 1 at a 5 nM concentration, then activated with IL-1β (Panel A; 10 pg/ml) or bradykinin (Panel B; 100 nM) for 48 hr. Culture media were collected and analyzed for PGE2 (Panel A) or IL-6 (Panel B) content. Patient fibroblasts were also activated first with IL-1β for 30 min then treated with 5 nM (7R)-Maresin 1 or LXA4 for 18 hours, followed by a booster dose for 6 hr. Culture media were collected and analyzed for PGE2 (Panel C) or IL-6 (Panel D) content. Mean+/−SEM of n=3, ANOVA *p<0.05 vs. activation only (no SPM).
FIGS. 24A and 24B are diagrams showing that six SPMs are effective in reducing IL-6 and PGE2 production from fibroblasts when used as a post-treatment. Patient vestibular or vulvar fibroblasts were activated first with IL-1β for 30 min then treated with RvD3, RvD4, RvD5, RvE1, Protectin D1 or Protectin DX at a 5 nM concentration for 18 hours, followed by a booster SPM dose for 24 hr. Culture media were collected and analyzed for IL-6 (Panel A) and PGE2 (Panel B) content. Mean+/−SEM of n=6 (two cases run in triplicate), ANOVA *p<0.05 vs. activation only (IL-1b). […] The magnitude of reduction was not as great as pre-treatment, but equally significant as the reduction from pre-treatment regimens.
In this example, a fibroblast-based in vitro LPV model was established. Briefly, fibroblast strains were obtained from two regions (FIG. 1) of the lower genital tract of localized provoked vulvodynia (LPV) cases and pain-free controls in the manner described in Falsetta et al. Am J Obstet Gynecol 2015, vol. 213, pp. 38 e1-12 and Foster et al., Pain 2015, vol. 156, pp. 386-96.
Over 30 paired fibroblast strains obtained from LPV-afflicted cases (fulfilling Friedrich's Criteria)^25 and age/race-matched (critical variables influencing LPV),^26, 27 pain-free controls were obtained. All subjects who contributed to the library were premenopausal, denied oral corticosteroids, non-steroidal, immunomodulatory, or anti-inflammatory medication use, and reported an absence of systemic/cutaneous inflammatory conditions at the time of sample collection. Mechanical pain thresholds were determined (via a method of limits) (0.5-5 N) using a Wagner algometer. Fibroblast identity was confirmed by microscopy and fibroblast markers (vimentin, collagen); only low passage (˜4) cells are used.
Synthesized, purified and commercially available SPMs from each known SPM class (E-series Resolvins, D-series Resolvins, Maresins, Protectins and Lipoxins) at low/nanomolar concentrations (1-100 nM) were tested. […] The inventors used one of two treatment regimens proven effective in vulvar fibroblasts and other cells: 1) overnight pre-treatment, followed by another treatment 30 min prior to stimulation with proinflammatory stimuli for 48 hr with a third dose of SPMs at 24 hr post-challenge, or 2) post-treatment with SPMs after a 30 min pre-treatment with inflammatory stimuli, followed by a booster dose 18 hr later. Both treatment regimens are of interest, as SPMs are active throughout the inflammatory process.^5-7 Even SPMs administered after LPV onset are likely to prevent the worsening or spread of LPV pain.

Another experiment deals with C57BL/6 mice. Nature of the experiment: Mouse model of LPV (zymosan-induced vulvar allodynia), topical Maresin 1. The note with it: topical 1 μg/mouse/day, daily for 4 weeks. Type of experiment: in vivo. The source says:
FIG. 9 is a diagram showing that PGE2 in vaginal lavage is associated with pain threshold. After induction of allodynia for up to 6 weeks (indicated by reduced pain threshold, red line), Maresin 1 was applied to C57BL/6 mouse vulvas to reduce pain and increase pain threshold. PGE2 content in vaginal lavage samples (blue line) rapidly increases during the induction phase, indicating pain-associated inflammation waning with treatment. SEM shown, n=8.
In the mouse model, zymosan (a proinflammatory yeast cell wall preparation) was used to induce sustained vulvar allodynia, measured by pain threshold testing. […]
Using this approach, inventors confirmed that one could induce vulvar allodynia, measure pain responses via mechanical threshold determination, and assess treatment responses. However, inventors implemented several modifications to improve the robustness of the model including the following: 1) use a genetically tractable inbred strain, 2) validation of the use of an electronic von Frey (EvF) system, 3) assessment of the impact of behavioral conditioning on pain response, 4) weekly collection of vulvovaginal lavages for proinflammatory mediator quantification, and 5) testing the ability of a selected SPM (e.g., Maresin 1) to modulate pain and inflammation in our new model. […]

As for `CC/C=C\C/C=C\C[C@H](O)\C=C/C=C/C=C/[C@H](O)C/C=C\CCC(=O)O` [Maresin 1, 7R,14S-docosa-4Z,8E,10E,12Z,16Z,19Z-hexaenoic acid], in the experiment on human vulvar fibroblasts (FIG. 5C), the PGE2 levels entry is “significantly reduced”. Besides, the IL-6 levels entry in the experiment on human vulvar fibroblasts (FIG. 5D) is “significantly reduced”. Further, the “PGE2 levels in vaginal lavage” value with C57BL/6 mice is “suppressed and maintained at levels below baseline”. Also, in the experiment with C57BL/6 mice (after allodynia induction), the “pain threshold (electronic von Frey)” value is recorded as “complete restoration to the pre-induction thresholds”.

Values taken from US20220040136A1, “TREATMENT OF VULVOVAGINAL DISORDERS” (University of Rochester, priority 2018, published 2022).
